Article PMC11219936, “Development of radioiodine-labeled mequitazine for evaluation of hepatic CYP2D activity” (Frontiers in Pharmacology, 2024)

Columns and labels:
[1] = test system: ^125I-BMQ-metabolizing CYP isoenzymes (pooled MLMs); assay: Inhibition of ^125I-BMQ metabolism by specific CYP inhibitors and mequitazine in pooled MLMs; conditions: for percentage of metabolites produced from ^125I-BMQ: 37°C, 15 min; for inhibition at 15 min, 10 µM: mouse, pooled mouse liver microsomes, pH 7.4, probe ^125I-BMQ
Method: These specific inhibitors were used to identify the CYPs involved in the biotransformation of ^125I-BMQ. The inhibitors and mequitazine (self-inhibitor) were dissolved at a concentration of 10 μM (0.8% [v/v] final concentration DMSO).
Samples were incubated at 37°C for 15 min with gentle shaking, and the reaction was stopped by addition of 100 µL of ethanol and centrifugation at 18,000 g for 5 min. The final supernatant was analyzed by TLC using methanol/acetic acid at a 100:1 ratio. The percentages of ^125I-BMQ metabolites in each sample were then calculated (n = 3).

[2] = test system: CYP (pooled mouse liver microsomes, MLMs); assay: NADPH-mediated metabolism of ^125I-BMQ in pooled mouse liver microsomes, TLC analysis; assay type: in vitro ADME; conditions: 37°C, increase with reaction time
Method: Animal studies were approved by the Animal Care Committee at Kanazawa University (AP-173851) and conducted in accordance with international standards for animal welfare and institutional guidelines. For preparation of pooled mouse liver microsomes (MLMs), three 6-week-old male ddY mice (Japan SLC, Tokyo, Japan) were euthanized under anesthesia using isoflurane. The liver of each mouse was removed and weighed. After adding 3 mL of Krebs-Ringer’s phosphate buffer (pH 7.4) per gram of liver, the livers were pooled and homogenized using an ultrasonic homogenizer (SONIFIER250, Branson, MO, United States). The homogenate was centrifuged for 20 min at 9,000 g, and the supernatant was centrifuged for 60 min at 100,500 g. […] The resulting precipitate was obtained as microsomes, and the protein content was determined according to the bicinchoninic acid method ([Smith et al., 1985]). […]
To analyze CYP-mediated metabolism of ^125I-BMQ, nicotinamide adenine dinucleotide phosphate (NADPH) was used as an energy source for CYP. […] The samples were then centrifuged at 18,000 g for 5 min, and the supernatant of each sample was analyzed by thin layer chromatography (TLC). […] After development and complete drying, the TLC plates were cut into 21 fractions, and the radioactivity associated with each fraction was measured using a γ-ray counter (AccuFLEX γ 7000, Aloka, Tokyo, Japan). […]

[3] = Biological distribution of ^125I-BMQ in normal mice; assay type: in vivo, mouse; conditions: tail vein injection
Method: ^125I-BMQ was prepared to a specific radioactivity of 185 kBq/mL by adding saline. A total of 20 fasting 6-week-old male ddY mice were injected with ^125I-BMQ into the tail vein (18.5 kBq/100 µL/mouse), and after 2, 10, 30, 60, and 120 min, four mice each were euthanized under isoflurane, and blood, brain, thyroid, lung, heart, liver, gallbladder, stomach, pancreas, spleen, intestine, kidney, and urine tissue were collected. The tissue was weighted and the radioactivity was measured using a γ-ray counter to calculate the injected dose percent (%ID) or injected dose percent per gram of tissue (%ID/g).

[4] = Metabolism of ^125I-BMQ in vivo: TLC analysis of radioactive products in bile; parameters: species or system mouse
Method: ^125I-BMQ was prepared to a specific radioactivity of 10 MBq/mL by adding saline and injected via tail vein into three mice (2.0 MBq/200 µL/mouse). […] Radioactive products in the bile were analyzed by TLC using chloroform/acetic acid/H2O at a ratio of 60:40:1. Bile was spotted directly onto the TLC plate.

[5] = Preliminary study: effect of intraperitoneal paroxetine on hepatobiliary excretion of ^99mTc-PMT, SPECT dynamic imaging; conditions: CYP2D-inhibited mice, probe ^99mTc-PMT
Method: SPECT imaging of ^123I-BMQ was performed to visualize the accumulation of radioactive metabolite for the purpose of assessing CYP2D activity. […] In a preliminary study, the effect of intraperitoneal administration of paroxetine on hepatobiliary excretion was investigated.

[6] = NADPH [+], pooled MLMs, inhibitor 10 μM
[7] = mouse bile after iv injection, gallbladder removed, TLC

## c1ccc2c(c1)Sc1ccccc1N2CC1CN2CCC1CC2 (racemic) [mequitazine, 10-[(3RS)-1-azabicyclo [2.2.2]oct-3-ylmethyl]-10H-phenothiazine]
[1]; [6]
  percentage of metabolites produced from ^125I-BMQ: 1.34%
[1]
  inhibition at 15 min, 10 µM: 94%

## [125I]c1ccc(C[N+]23CCC(CC2)C(CN2c4ccccc4Sc4ccccc42)C3)cc1 (stereo not drawn) [^125I-BMQ, ^125I-4-iodobenzylmequitazine]
[2]
  percentage of radioactive metabolite: 3%–25%
[1]; NADPH [−], pooled MLMs, no inhibitor
  percentage of metabolites: 2.64%
[3]; 2 min
  Biological distribution, Blood: 1.71 ± 0.40 %ID/g
  Biological distribution, Brain: 0.12 ± 0.02 %ID/g
  Biological distribution, Gall bladder: 4.16 ± 4.04 %ID/g
  Biological distribution, Heart: 0.78 ± 0.14 %ID/g
  Biological distribution, Intestines: 1.52 ± 0.17 %ID/organ
  Biological distribution, Kidney: 8.04 ± 0.39 %ID/g
  Biological distribution, Liver: 10.58 ± 0.30 %ID/g
  Biological distribution, Lung: 0.77 ± 0.12 %ID/g
  Biological distribution, Pancreas: 0.51 ± 0.05 %ID/g
  Biological distribution, Spleen: 0.46 ± 0.11 %ID/g
  Biological distribution, Stomach: 0.14 ± 0.01 %ID/organ
  Biological distribution, Thyroid: 1.19 ± 0.23 %ID/g
  Biological distribution, Urine: 0.10 ± 0.10 %ID/organ
[3]; 10 min
  Biological distribution, Blood: 0.32 ± 0.07 %ID/g
  Biological distribution, Brain: 0.08 ± 0.02 %ID/g
  Biological distribution, Gall bladder: 13.28 ± 14.03 %ID/g
  Biological distribution, Heart: 0.47 ± 0.11 %ID/g
  Biological distribution, Intestines: 3.90 ± 1.55 %ID/organ
  Biological distribution, Kidney: 7.84 ± 0.50 %ID/g
  Biological distribution, Liver: 10.55 ± 0.48 %ID/g
  Biological distribution, Lung: 0.46 ± 0.28 %ID/g
  Biological distribution, Pancreas: 0.41 ± 0.03 %ID/g
  Biological distribution, Spleen: 0.26 ± 0.01 %ID/g
  Biological distribution, Stomach: 1.33 ± 1.08 %ID/organ
  Biological distribution, Thyroid: 0.57 ± 0.15 %ID/g
  Biological distribution, Urine: 0.06 ± 0.07 %ID/organ
[3]; 30 min
  Biological distribution, Blood: 0.30 ± 0.16 %ID/g
  Biological distribution, Brain: 0.14 ± 0.10 %ID/g
  Biological distribution, Gall bladder: 24.43 ± 6.95 %ID/g
  Biological distribution, Heart: 0.52 ± 0.23 %ID/g
  Biological distribution, Intestines: 7.06 ± 1.89 %ID/organ
  Biological distribution, Kidney: 8.70 ± 1.50 %ID/g
  Biological distribution, Liver: 8.45 ± 0.99 %ID/g
  Biological distribution, Lung: 0.40 ± 0.20 %ID/g
  Biological distribution, Pancreas: 0.63 ± 0.25 %ID/g
  Biological distribution, Spleen: 0.24 ± 0.08 %ID/g
  Biological distribution, Stomach: 0.42 ± 0.36 %ID/organ
  Biological distribution, Thyroid: 1.16 ± 0.60 %ID/g
  Biological distribution, Urine: 0.30 ± 0.26 %ID/organ
[3]; 60 min
  Biological distribution, Blood: 0.11 ± 0.01 %ID/g
  Biological distribution, Brain: 0.05 ± 0.01 %ID/g
  Biological distribution, Gall bladder: 23.28 ± 9.55 %ID/g
  Biological distribution, Heart: 1.00 ± 0.13 %ID/g
  Biological distribution, Intestines: 14.26 ± 1.26 %ID/organ
  Biological distribution, Kidney: 18.07 ± 2.42 %ID/g
  Biological distribution, Liver: 6.61 ± 0.90 %ID/g
  Biological distribution, Lung: 0.55 ± 0.13 %ID/g
  Biological distribution, Pancreas: 0.84 ± 0.29 %ID/g
  Biological distribution, Spleen: 0.86 ± 0.12 %ID/g
  Biological distribution, Stomach: 0.63 ± 0.41 %ID/organ
  Biological distribution, Thyroid: 1.03 ± 0.21 %ID/g
  Biological distribution, Urine: 0.47 ± 0.55 %ID/organ
[3]; 120 min
  Biological distribution, Blood: 0.09 ± 0.01 %ID/g
  Biological distribution, Brain: 0.05 ± 0.01 %ID/g
  Biological distribution, Gall bladder: 28.93 ± 14.65 %ID/g
  Biological distribution, Heart: 0.92 ± 0.11 %ID/g
  Biological distribution, Intestines: 16.36 ± 1.01 %ID/organ
  Biological distribution, Kidney: 16.10 ± 2.91 %ID/g
  Biological distribution, Liver: 6.02 ± 1.23 %ID/g
  Biological distribution, Lung: 0.36 ± 0.06 %ID/g
  Biological distribution, Pancreas: 0.73 ± 0.26 %ID/g
  Biological distribution, Spleen: 0.83 ± 0.32 %ID/g
  Biological distribution, Stomach: 0.44 ± 0.07 %ID/organ
  Biological distribution, Thyroid: 1.14 ± 0.08 %ID/g
  Biological distribution, Urine: 0.11 ± 0.01 %ID/organ
[4]; gallbladder removed 60 min after the mice were injected
  radioactivity in the bile that was radioactive metabolite: more than 90%
[4]; [7]
  ^125I-BMQ (parent) in bile: no ^125I-BMQ was detected
  percentage of metabolites of ^125I-BMQ in bile: > 90%

## CC(=O)N1CCN(c2ccc(OCC3COC(Cn4ccnc4)(c4ccc(Cl)cc4Cl)O3)cc2)CC1 (stereo not drawn) [ketoconazole]
[1]; [6]
  percentage of ^125I-BMQ compared with NADPH [+]: slightly lower, but not significantly

## Fc1ccc([C@@H]2CCNC[C@H]2COc2ccc3c(c2)OCO3)cc1 [paroxetine]
[1]; [6]
  percentage of metabolites produced from ^125I-BMQ: 12.5%
[1]
  inhibition at 15 min, 10 µM: 42%
[5]
  effect on biliary excretory function: did not affect the biliary excretory function itself

## C=C[C@H]1C[N@@]2CC[C@H]1C[C@@H]2[C@@H](O)c1ccnc2ccc(OC)cc12 [quinidine]
[1]; [6]
  percentage of metabolites produced from ^125I-BMQ: 4.47%
[1]
  inhibition at 15 min, 10 µM: 80%
